How the values were obtained:
Human Axl = biological target: T1, Human Axl (Homo sapiens, UniProt P30530); experiment: Human AXL kinase assay (33P radiometric / HTRF KinEase); format: biochemical; details: protocols of Examples A-1 and/or A-2
T1 construct: Human AXL (residues 464-885)
T1 sequence (P30530 1-894 Q764R): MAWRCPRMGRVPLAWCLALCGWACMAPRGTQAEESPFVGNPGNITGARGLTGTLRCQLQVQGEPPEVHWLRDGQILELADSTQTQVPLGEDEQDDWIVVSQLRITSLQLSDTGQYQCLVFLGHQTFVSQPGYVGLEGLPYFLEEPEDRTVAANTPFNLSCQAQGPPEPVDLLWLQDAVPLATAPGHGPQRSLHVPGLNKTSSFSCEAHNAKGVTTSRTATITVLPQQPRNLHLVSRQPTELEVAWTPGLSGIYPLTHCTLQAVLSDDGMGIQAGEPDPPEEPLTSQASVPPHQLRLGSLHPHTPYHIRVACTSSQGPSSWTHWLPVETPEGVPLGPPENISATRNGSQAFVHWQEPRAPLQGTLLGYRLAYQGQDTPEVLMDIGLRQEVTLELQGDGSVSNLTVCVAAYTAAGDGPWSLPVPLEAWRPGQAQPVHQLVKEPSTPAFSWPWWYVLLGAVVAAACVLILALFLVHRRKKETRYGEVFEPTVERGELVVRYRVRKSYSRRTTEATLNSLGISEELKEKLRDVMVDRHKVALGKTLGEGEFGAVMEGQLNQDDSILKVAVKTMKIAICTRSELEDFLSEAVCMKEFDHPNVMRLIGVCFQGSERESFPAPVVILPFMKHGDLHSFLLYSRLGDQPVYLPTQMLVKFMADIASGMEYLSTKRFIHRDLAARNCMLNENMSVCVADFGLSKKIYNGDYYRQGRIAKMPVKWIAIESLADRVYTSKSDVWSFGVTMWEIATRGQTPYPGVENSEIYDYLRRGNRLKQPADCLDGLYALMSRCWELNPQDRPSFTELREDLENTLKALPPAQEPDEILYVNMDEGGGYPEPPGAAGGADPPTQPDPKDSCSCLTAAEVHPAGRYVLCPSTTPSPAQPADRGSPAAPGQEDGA

Human KDR = biological target: T2, Human KDR (Homo sapiens, UniProt P35968); experiment: Human KDR kinase assay (33P radiometric / HTRF KinEase); format: biochemical; details: protocols of Examples B-1 and/or B-2
T2 construct: Human KDR (residues K790-V1356, 55 nM); purchased Eurofins Pharma Discovery Services UK Limited (KinaseProfiler, B-1) and/or CarnaBio (B-2)
In short: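 Radiometric: KDR K790-V1356 (55 nM), MOPS pH 7.0, myelin basic protein, 10 μM [γ-33P]ATP, 40 min at room temperature, filter-bound 33P counted; nine half-log doses, top 1 μM. HTRF: KDR 790-1356, 1 μM biotinylated peptide, ATP at Km (4.0 μM), 40 min, 10 doses. IC50 from logistic fits.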

T2 sequence (P35968 790-1356): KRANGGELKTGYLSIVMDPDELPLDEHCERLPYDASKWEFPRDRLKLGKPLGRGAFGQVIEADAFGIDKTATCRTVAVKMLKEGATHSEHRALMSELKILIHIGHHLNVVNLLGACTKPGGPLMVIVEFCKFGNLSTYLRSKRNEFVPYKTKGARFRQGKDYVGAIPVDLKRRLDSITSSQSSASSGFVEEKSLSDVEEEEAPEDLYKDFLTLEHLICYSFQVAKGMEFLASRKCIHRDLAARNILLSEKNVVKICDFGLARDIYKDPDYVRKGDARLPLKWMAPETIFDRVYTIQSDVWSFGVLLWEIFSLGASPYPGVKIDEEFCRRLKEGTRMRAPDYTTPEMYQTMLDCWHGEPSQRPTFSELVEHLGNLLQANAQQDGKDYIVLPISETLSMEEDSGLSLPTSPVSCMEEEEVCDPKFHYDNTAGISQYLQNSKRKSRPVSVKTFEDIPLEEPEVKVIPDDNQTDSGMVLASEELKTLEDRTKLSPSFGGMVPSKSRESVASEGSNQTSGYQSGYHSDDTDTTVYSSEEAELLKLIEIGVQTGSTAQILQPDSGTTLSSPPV

With `COc1cc2nccc(Oc3ccc(NC(=O)c4c(C)n(C)c(C)c(/C=C/C5CC5)c4=O)cc3F)c2nc1OC` [Compound 50, 5-[(E)-2-Cyclopropylethenyl]-N-[4-[(6,7-dimethoxy-1,5-naphthyridin-4-yl)oxy]-3-fluorophenyl]-1,2,6-trimethyl-4-oxopyridine-3-carboxamide] the IC50 (Human Axl) was no more than 100 nM and the IC50 (Human KDR) was greater than 300 nM.

Work on `COCCOc1cc2nccc(Oc3ccc(NC(=O)c4c(C)n(C)c(C)c(/C=C/C5CC5)c4=O)cc3F)c2nc1OC` [Compound 51, 5-[(E)-2-Cyclopropylethenyl]-N-[3-fluoro-4-[[6-methoxy-7-(2-methoxyethoxy)-1,5-naphthyridin-4-yl]oxy]phenyl]-1,2,6-trimethyl-4-oxopyridine-3-carboxamide] yielded an IC50 (Human Axl) of no more than 100 nM and an IC50 (Human KDR) greater than 300 nM.

Molecule `COc1cc2nccc(Oc3ccc(NC(=O)c4c5n(c(C)c(C6=CCOCC6)c4=O)CCOC5)cc3F)c2nc1OC` [Compound 79, 7-(3,6-Dihydro-2H-pyran-4-yl)-N-[4-[(6,7-dimethoxy-1,5-naphthyridin-4-yl)oxy]-3-fluorophenyl]-6-methyl-8-oxo-3,4-dihydro-1H-pyrido[2,1-c][1,4]oxazine-9-carboxamide] has an IC50 (Human Axl) of no more than 100 nM and an IC50 (Human KDR) greater than 300 nM.

`COc1cc2nccc(Oc3ccc(NC(=O)c4c5n(c(C)c(C6=CCCCC6)c4=O)CCOC5)cc3F)c2nc1OC` [Compound 80, 7-(Cyclohexen-1-yl)-N-[4-[(6,7-dimethoxy-1,5-naphthyridin-4-yl)oxy]-3-fluorophenyl]-6-methyl-8-oxo-3,4-dihydro-1H-pyrido[2,1-c][1,4]oxazine-9-carboxamide] was tested, and the IC50 (Human Axl) was no more than 100 nM and the IC50 (Human KDR) was no more than 100 nM.

In the case of `COc1cnc2c(Oc3ccc(NC(=O)c4c(C)n(C)c(C)c(C#N)c4=O)cc3F)ccnc2c1` [Compound 81, 5-Cyano-N-[3-fluoro-4-[(7-methoxy-1,5-naphthyridin-4-yl)oxy]phenyl]-1,2,6-trimethyl-4-oxopyridine-3-carboxamide], the IC50 (Human Axl) is reported as greater than 300 nM and the IC50 (Human KDR) is reported as greater than 300 nM.

`COc1cc2nccc(Oc3ccc(NC(=O)c4c(C)n(C)c(C)c(C#N)c4=O)cc3)c2nc1OC` [Compound 82, 5-Cyano-N-[4-[(6,7-dimethoxy-1,5-naphthyridin-4-yl)oxy]phenyl]-1,2,6-trimethyl-4-oxopyridine-3-carboxamide] gave an IC50 (Human Axl) greater than 300 nM and an IC50 (Human KDR) greater than 300 nM.

For `COCCOc1cc2nccc(Oc3cc(F)c(NC(=O)c4c(C)n(C)c(C)c(C#N)c4=O)cc3F)c2nc1OC` [Compound 83, 5-Cyano-N-[2,5-difluoro-4-[[6-methoxy-7-(2-methoxyethoxy)-1,5-naphthyridin-4-yl]oxy]phenyl]-1,2,6-trimethyl-4-oxopyridine-3-carboxamide], the IC50 (Human Axl) was 100 to 300 nM and the IC50 (Human KDR) was greater than 300 nM.

`COc1cc2nccc(Oc3ccc(NC(=O)c4c(C)nc(C)c(C(N)=O)c4O)cc3F)c2nc1OC` [Compound 84, 3-N-[4-[(6,7-Dimethoxy-1,5-naphthyridin-4-yl)oxy]-3-fluorophenyl]-4-hydroxy-2,6-dimethylpyridine-3,5-dicarboxamide] gave an IC50 (Human Axl) greater than 300 nM and an IC50 (Human KDR) greater than 300 nM.

With `COc1cc2nccc(Oc3ccc(NC(=O)c4c(C)nc(C)c(C(N)=O)c4O)cc3)c2nc1OC` [Compound 85, 3-N-[4-[(6,7-Dimethoxy-1,5-naphthyridin-4-yl)oxy]phenyl]-4-hydroxy-2,6-dimethylpyridine-3,5-dicarboxamide] the IC50 (Human Axl) was greater than 300 nM and the IC50 (Human KDR) was greater than 300 nM.

`COCCOc1cc2nccc(Oc3cc(F)c(NC(=O)c4c(C)nc(C)c(C(N)=O)c4O)cc3F)c2nc1OC` [Compound 86, 3-N-[2,5-Difluoro-4-[[6-methoxy-7-(2-methoxyethoxy)-1,5-naphthyridin-4-yl]oxy]phenyl]-4-hydroxy-2,6-dimethylpyridine-3,5-dicarboxamide] was tested, and the IC50 (Human Axl) was greater than 300 nM and the IC50 (Human KDR) was greater than 300 nM.

`COc1cc2nccc(Oc3ccc(NC(=O)c4c(C)nc(C)c(C#N)c4O)cc3F)c2nc1OC` [Compound 87, 5-Cyano-N-[4-[(6,7-dimethoxy-1,5-naphthyridin-4-yl)oxy]-3-fluorophenyl]-4-hydroxy-2,6-dimethylpyridine-3-carboxamide] was tested, and the IC50 (Human Axl) was greater than 300 nM and the IC50 (Human KDR) was 100 to 300 nM.

Molecule `COc1cc2nccc(Oc3ccc(NC(=O)c4c(C)n(C)c(C)c(N5CCOCC5)c4=O)cc3F)c2nc1OC` [Compound 88, N-[4-[(6,7-Dimethoxy-1,5-naphthyridin-4-yl)oxy]-3-fluorophenyl]-1,2,6-trimethyl-5-morpholin-4-yl-4-oxopyridine-3-carboxamide] has an IC50 (Human Axl) of no more than 100 nM and an IC50 (Human KDR) greater than 300 nM.

`COc1cc2nccc(Oc3ccc(NC(=O)c4c(C)n(C)c(C)c(N5CCCC5)c4=O)cc3F)c2nc1OC` [Compound 89, N-[4-[(6,7-Dimethoxy-1,5-naphthyridin-4-yl)oxy]-3-fluorophenyl]-1,2,6-trimethyl-4-oxo-5-pyrrolidin-1-ylpyridine-3-carboxamide] was tested, and the IC50 (Human Axl) was no more than 100 nM and the IC50 (Human KDR) was no more than 100 nM.

Work on `COc1cc2nccc(Oc3ccc(NC(=O)c4c(C)n(C)c(C)c(N5CCCCC5)c4=O)cc3F)c2nc1OC` [Compound 90, N-[4-[(6,7-dimethoxy-1,5-naphthyridin-4-yl)oxy]-3-fluorophenyl]-1,2,6-trimethyl-4-oxo-5-piperidin-1-ylpyridine-3-carboxamide] yielded an IC50 (Human Axl) of no more than 100 nM and an IC50 (Human KDR) of 100 to 300 nM.

In the case of `COc1cnc2c(Oc3ccc(NC(=O)c4c(C)nc(C)c(C(N)=O)c4O)cc3F)ccnc2c1` [Compound 91, 3-N-[3-Fluoro-4-[(7-methoxy-1,5-naphthyridin-4-yl)oxy]phenyl]-4-hydroxy-2,6-dimethylpyridine-3,5-dicarboxamide], the IC50 (Human Axl) is reported as greater than 300 nM and the IC50 (Human KDR) is reported as greater than 300 nM.

Molecule `COc1cc2nccc(Oc3ccc(NC(=O)c4c(C)n(C)c(C)c(C(=O)O)c4=O)cc3F)c2nc1OC` [Compound 92, 5-[[4-[(6,7-Dimethoxy-1,5-naphthyridin-4-yl)oxy]-3-fluorophenyl]carbamoyl]-1,2,6-trimethyl-4-oxopyridine-3-carboxylic acid] has an IC50 (Human Axl) greater than 300 nM and an IC50 (Human KDR) of 100 to 300 nM.

In the case of `COc1cc2nccc(Oc3ccc(NC(=O)c4c(C)nc(C)c(C(=O)N(C)C)c4O)cc3F)c2nc1OC` [Compound 93, 3-N-[4-[(6,7-Dimethoxy-1,5-naphthyridin-4-yl)oxy]-3-fluorophenyl]-4-hydroxy-5-N,5-N,2,6-tetramethylpyridine-3,5-dicarboxamide], the IC50 (Human Axl) is reported as no more than 100 nM and the IC50 (Human KDR) is reported as no more than 100 nM.

`COc1cc2nccc(Oc3ccc(NC(=O)c4c(C)nc(C)c(C(=O)NC(C)C)c4O)cc3F)c2nc1OC` [Compound 94, 3-N-[4-[(6,7-Dimethoxy-1,5-naphthyridin-4-yl)oxy]-3-fluorophenyl]-4-hydroxy-2,6-dimethyl-5-N-propan-2-ylpyridine-3,5-dicarboxamide] showed an IC50 (Human Axl) of no more than 100 nM and an IC50 (Human KDR) of no more than 100 nM.

For `COc1cc2nccc(Oc3ccc(NC(=O)c4c(C)n(C)c(C)c(C(=O)N(C)C)c4=O)cc3F)c2nc1OC` [Compound 95, 5-N-[4-[(6,7-Dimethoxy-1,5-naphthyridin-4-yl)oxy]-3-fluorophenyl]-3-N,3-N,1,2,6-pentamethyl-4-oxopyridine-3,5-dicarboxamide], the IC50 (Human Axl) was 100 to 300 nM and the IC50 (Human KDR) was greater than 300 nM.

`COc1cc2nccc(Oc3ccc(NC(=O)c4c(C)n(C)c(C)c(C(=O)NC5CC5)c4=O)cc3F)c2nc1OC` [Compound 96, 3-N-Cyclopropyl-5-N-[4-[(6,7-dimethoxy-1,5-naphthyridin-4-yl)oxy]-3-fluorophenyl]-1,2,6-trimethyl-4-oxopyridine-3,5-dicarboxamide] gave an IC50 (Human Axl) greater than 300 nM and an IC50 (Human KDR) greater than 300 nM.

In the case of `CNC(=O)c1c(C)nc(C)c(C(=O)Nc2ccc(Oc3ccnc4cc(OC)c(OC)nc34)c(F)c2)c1O` [Compound 97, 3-N-[4-[(6,7-Dimethoxy-1,5-naphthyridin-4-yl)oxy]-3-fluorophenyl]-4-hydroxy-5-N,2,6-trimethylpyridine-3,5-dicarboxamide], the IC50 (Human Axl) is reported as no more than 100 nM and the IC50 (Human KDR) is reported as 100 to 300 nM.

In the case of `COc1cc2nccc(Oc3ccc(NC(=O)c4c(C)nc(C)c(C(=O)NC5CC5)c4O)cc3F)c2nc1OC` [Compound 98, 5-N-Cyclopropyl-3-N-[4-[(6,7-dimethoxy-1,5-naphthyridin-4-yl)oxy]-3-fluorophenyl]-4-hydroxy-2,6-dimethylpyridine-3,5-dicarboxamide], the IC50 (Human Axl) is reported as no more than 100 nM and the IC50 (Human KDR) is reported as no more than 100 nM.

Molecule `COc1cc2nccc(Oc3ccc(NC(=O)c4c5n(c(C)c(C6=CCCC6)c4=O)CCOC5)cc3)c2nc1OC` [Compound 99, 7-(Cyclopenten-1-yl)-N-[4-[(6,7-dimethoxy-1,5-naphthyridin-4-yl)oxy]phenyl]-6-methyl-8-oxo-3,4-dihydro-1H-pyrido[2,1-c][1,4]oxazine-9-carboxamide] has an IC50 (Human Axl) of no more than 100 nM and an IC50 (Human KDR) greater than 300 nM.
